According to patent publication US6518243B1, “Desleucyl glycopeptide antibiotics and methods of making same” (Trustees of Princeton University, priority 1999, dated 2003):

Experiments:
Assay in all cases: Zone of inhibition screen, 96 well agar array format
Assay type in all cases: cell-based
Parameters in all cases: scale not given here
E. faecalis (CL 4877) = tested on: E. faecalis (CL 4877)
Procedure, shortened: (§1)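 Each compound was tested for antibacterial activity against a shared bacterial panel, with screening carried out on agar in a 96-well array.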

S. aureus (ATCC 29213) = tested on: S. aureus (ATCC 29213)
Procedure, shortened: as §1

[1] = tested on: S. epidermidis (ATCC 12228)
Procedure, shortened: as §1

[2] = zone of inhibition relative to 1 mg/ml stock solution of p-chlorobiphenylvancomycin
[3] = zone of inhibition relative to 1 mg/ml p-chlorobiphenylvancomycin

CC(=O)N1CCCC1C(=O)NC1C(=O)NC(CC(N)=O)C(=O)NC2C(=O)NC3C(=O)NC(C(=O)NC(C(=O)O)c4cc(O)cc(O)c4-c4cc3ccc4O)C(O)c3ccc(c(Cl)c3)Oc3cc2cc(c3OC2OC(CO)C(O)C(O)C2OC2CC(C)(NCc3ccc(-c4ccc(Cl)cc4)cc3)C(O)C(C)O2)Oc2ccc(cc2Cl)C1O (stereo not drawn) [Compound 116]
2: zone score, E. faecalis CL 4877 (E. faecalis (CL 4877); [2]) | zone score, S. aureus ATCC 29213 (S. aureus (ATCC 29213); [2]) | zone score, S. epidermidis ATCC 12228 [1, 2]

CC1OC(OC2C(Oc3c4cc5cc3Oc3ccc(cc3Cl)C(O)C3NC(=O)C(NC(=O)C5NC(=O)C(CC(N)=O)NC(=O)C(NC(=O)CO)C(O)c5ccc(c(Cl)c5)O4)c4ccc(O)c(c4)-c4c(O)cc(O)cc4C(C(=O)O)NC3=O)OC(CO)C(O)C2O)CC(C)(NCc2ccc(-c3ccc(Cl)cc3)cc2)C1O (stereo not drawn) [Compound 158]
2: zone score, E. faecalis CL 4877 (E. faecalis (CL 4877); [2]) | zone score, S. aureus ATCC 29213 (S. aureus (ATCC 29213); [2]) | zone score, S. epidermidis ATCC 12228 [1, 2]

CC(O)CC(=O)N[C@H]1C(=O)N[C@@H](CC(N)=O)C(=O)N[C@H]2C(=O)N[C@H]3C(=O)N[C@H](C(=O)N[C@@H](C(=O)O)c4cc(O)cc(O)c4-c4cc3ccc4O)[C@H](O)c3ccc(c(Cl)c3)Oc3cc2cc(c3O[C@@H]2O[C@H](CO)[C@@H](O)[C@H](O)[C@H]2O[C@@H]2C[C@@](C)(NCc3ccc(-c4ccc(Cl)cc4)cc3)[C@@H](O)[C@@H](C)O2)Oc2ccc(cc2Cl)[C@H]1O (stereo partly drawn) [Compound 262]
2: zone score, E. faecalis CL 4877 (E. faecalis (CL 4877); [3]) | zone score, S. aureus ATCC 29213 (S. aureus (ATCC 29213); [3]) | zone score, S. epidermidis ATCC 12228 [1, 3]

CC1OC(OC2C(Oc3c4cc5cc3Oc3ccc(cc3Cl)C(O)C3NC(=O)C(NC(=O)C5NC(=O)C(CC(N)=O)NC(=O)C(NC(=O)C5CNCCO5)C(O)c5ccc(c(Cl)c5)O4)c4ccc(O)c(c4)-c4c(O)cc(O)cc4C(C(=O)O)NC3=O)OC(CO)C(O)C2O)CC(C)(NCc2ccc(-c3ccc(Cl)cc3)cc2)C1O (mixture of isomers) [Compound 23]
2: zone score, E. faecalis CL 4877 (E. faecalis (CL 4877); [2]) | zone score, S. aureus ATCC 29213 (S. aureus (ATCC 29213); [2]) | zone score, S. epidermidis ATCC 12228 [1, 2]

C=C(CC(=O)OC)C(=O)NC1C(=O)NC(CC(N)=O)C(=O)NC2C(=O)NC3C(=O)NC(C(=O)NC(C(=O)O)c4cc(O)cc(O)c4-c4cc3ccc4O)C(O)c3ccc(c(Cl)c3)Oc3cc2cc(c3OC2OC(CO)C(O)C(O)C2OC2CC(C)(NCc3ccc(-c4ccc(Cl)cc4)cc3)C(O)C(C)O2)Oc2ccc(cc2Cl)C1O (stereo not drawn) [Compound 293]
2: zone score, E. faecalis CL 4877 (E. faecalis (CL 4877); [3]) | zone score, S. aureus ATCC 29213 (S. aureus (ATCC 29213); [3]) | zone score, S. epidermidis ATCC 12228 [1, 3]

CC1OC(OC2C(Oc3c4cc5cc3Oc3ccc(cc3Cl)C(O)C3NC(=O)C(NC(=O)C5NC(=O)C(CC(N)=O)NC(=O)C(NC(=O)C=Cc5c[nH]cn5)C(O)c5ccc(c(Cl)c5)O4)c4ccc(O)c(c4)-c4c(O)cc(O)cc4C(C(=O)O)NC3=O)OC(CO)C(O)C2O)CC(C)(NCc2ccc(-c3ccc(Cl)cc3)cc2)C1O (stereo not drawn) [Compound 321]
2: zone score, E. faecalis CL 4877 (E. faecalis (CL 4877); [3]) | zone score, S. aureus ATCC 29213 (S. aureus (ATCC 29213); [3]) | zone score, S. epidermidis ATCC 12228 [1, 3]

CC1OC(OC2C(Oc3c4cc5cc3Oc3ccc(cc3Cl)C(O)C3NC(=O)C(NC(=O)C5NC(=O)C(CC(N)=O)NC(=O)C(NC(=O)C(N)CSCCO)C(O)c5ccc(c(Cl)c5)O4)c4ccc(O)c(c4)-c4c(O)cc(O)cc4C(C(=O)O)NC3=O)OC(CO)C(O)C2O)CC(C)(NCc2ccc(-c3ccc(Cl)cc3)cc2)C1O (stereo not drawn) [Compound 48]
2: zone score, E. faecalis CL 4877 (E. faecalis (CL 4877); [2]) | zone score, S. aureus ATCC 29213 (S. aureus (ATCC 29213); [2]) | zone score, S. epidermidis ATCC 12228 [1, 2]

COCCC(N)C(=O)NC1C(=O)NC(CC(N)=O)C(=O)NC2C(=O)NC3C(=O)NC(C(=O)NC(C(=O)O)c4cc(O)cc(O)c4-c4cc3ccc4O)C(O)c3ccc(c(Cl)c3)Oc3cc2cc(c3OC2OC(CO)C(O)C(O)C2OC2CC(C)(NCc3ccc(-c4ccc(Cl)cc4)cc3)C(O)C(C)O2)Oc2ccc(cc2Cl)C1O (stereo not drawn) [Compound 322]
2: zone score, E. faecalis CL 4877 (E. faecalis (CL 4877); [3]) | zone score, S. aureus ATCC 29213 (S. aureus (ATCC 29213); [3]) | zone score, S. epidermidis ATCC 12228 [1, 3]

CC(=O)Oc1ccc(C(=O)NC2C(=O)NC(CC(N)=O)C(=O)NC3C(=O)NC4C(=O)NC(C(=O)NC(C(=O)O)c5cc(O)cc(O)c5-c5cc4ccc5O)C(O)c4ccc(c(Cl)c4)Oc4cc3cc(c4OC3OC(CO)C(O)C(O)C3OC3CC(C)(NCc4ccc(-c5ccc(Cl)cc5)cc4)C(O)C(C)O3)Oc3ccc(cc3Cl)C2O)cc1 (stereo not drawn) [Compound 266]
2: zone score, E. faecalis CL 4877 (E. faecalis (CL 4877); [3]) | zone score, S. aureus ATCC 29213 (S. aureus (ATCC 29213); [3]) | zone score, S. epidermidis ATCC 12228 [1, 3]

COc1ccc(CCC(=O)NC2C(=O)NC(CC(N)=O)C(=O)NC3C(=O)NC4C(=O)NC(C(=O)NC(C(=O)O)c5cc(O)cc(O)c5-c5cc4ccc5O)C(O)c4ccc(c(Cl)c4)Oc4cc3cc(c4OC3OC(CO)C(O)C(O)C3OC3CC(C)(NCc4ccc(-c5ccc(Cl)cc5)cc4)C(O)C(C)O3)Oc3ccc(cc3Cl)C2O)cc1OC (stereo not drawn) [Compound 245]
2: zone score, E. faecalis CL 4877 (E. faecalis (CL 4877); [3]) | zone score, S. aureus ATCC 29213 (S. aureus (ATCC 29213); [3]) | zone score, S. epidermidis ATCC 12228 [1, 3]

COc1ccc(C(=O)NC2C(=O)NC(CC(N)=O)C(=O)NC3C(=O)NC4C(=O)NC(C(=O)NC(C(=O)O)c5cc(O)cc(O)c5-c5cc4ccc5O)C(O)c4ccc(c(Cl)c4)Oc4cc3cc(c4OC3OC(CO)C(O)C(O)C3OC3CC(C)(NCc4ccc(-c5ccc(Cl)cc5)cc4)C(O)C(C)O3)Oc3ccc(cc3Cl)C2O)cc1OC (stereo not drawn) [Compound 253]
2: zone score, E. faecalis CL 4877 (E. faecalis (CL 4877); [3]) | zone score, S. aureus ATCC 29213 (S. aureus (ATCC 29213); [3]) | zone score, S. epidermidis ATCC 12228 [1, 3]

CC1OC(OC2C(Oc3c4cc5cc3Oc3ccc(cc3Cl)C(O)C3NC(=O)C(NC(=O)C5NC(=O)C(CC(N)=O)NC(=O)C(NC(=O)C(Cc5c[nH]cn5)NC=O)C(O)c5ccc(c(Cl)c5)O4)c4ccc(O)c(c4)-c4c(O)cc(O)cc4C(C(=O)O)NC3=O)OC(CO)C(O)C2O)CC(C)(NCc2ccc(-c3ccc(Cl)cc3)cc2)C1O (stereo not drawn) [Compound 195]
2: zone score, E. faecalis CL 4877 (E. faecalis (CL 4877); [2]) | zone score, S. aureus ATCC 29213 (S. aureus (ATCC 29213); [2]) | zone score, S. epidermidis ATCC 12228 [1, 2]

CC1OC(OC2C(Oc3c4cc5cc3Oc3ccc(cc3Cl)C(O)C3NC(=O)C(NC(=O)C5NC(=O)C(CC(N)=O)NC(=O)C(NC(=O)C(F)F)C(O)c5ccc(c(Cl)c5)O4)c4ccc(O)c(c4)-c4c(O)cc(O)cc4C(C(=O)O)NC3=O)OC(CO)C(O)C2O)CC(C)(NCc2ccc(-c3ccc(Cl)cc3)cc2)C1O (stereo not drawn) [Compound 285]
2: zone score, E. faecalis CL 4877 (E. faecalis (CL 4877); [3]) | zone score, S. aureus ATCC 29213 (S. aureus (ATCC 29213); [3]) | zone score, S. epidermidis ATCC 12228 [1, 3]

CC1OC(OC2C(Oc3c4cc5cc3Oc3ccc(cc3Cl)C(O)C3NC(=O)C(NC(=O)C5NC(=O)C(CC(N)=O)NC(=O)C(NC(=O)c5cccn5C)C(O)c5ccc(c(Cl)c5)O4)c4ccc(O)c(c4)-c4c(O)cc(O)cc4C(C(=O)O)NC3=O)OC(CO)C(O)C2O)CC(C)(NCc2ccc(-c3ccc(Cl)cc3)cc2)C1O (stereo not drawn) [Compound 229]
2: zone score, E. faecalis CL 4877 (E. faecalis (CL 4877); [3]) | zone score, S. aureus ATCC 29213 (S. aureus (ATCC 29213); [3]) | zone score, S. epidermidis ATCC 12228 [1, 3]

CC1OC(OC2C(Oc3c4cc5cc3Oc3ccc(cc3Cl)C(O)C3NC(=O)C(NC(=O)C5NC(=O)C(CC(N)=O)NC(=O)C(NC(=O)c5ccc6[nH]nnc6c5)C(O)c5ccc(c(Cl)c5)O4)c4ccc(O)c(c4)-c4c(O)cc(O)cc4C(C(=O)O)NC3=O)OC(CO)C(O)C2O)CC(C)(NCc2ccc(-c3ccc(Cl)cc3)cc2)C1O (stereo not drawn) [Compound 281]
2: zone score, E. faecalis CL 4877 (E. faecalis (CL 4877); [3]) | zone score, S. aureus ATCC 29213 (S. aureus (ATCC 29213); [3]) | zone score, S. epidermidis ATCC 12228 [1, 3]

CC1OC(OC2C(Oc3c4cc5cc3Oc3ccc(cc3Cl)C(O)C3NC(=O)C(NC(=O)C5NC(=O)C(CC(N)=O)NC(=O)C(NC(=O)CC[S+](C)C)C(O)c5ccc(c(Cl)c5)O4)c4ccc(O)c(c4)-c4c(O)cc(O)cc4C(C(=O)O)NC3=O)OC(CO)C(O)C2O)CC(C)(NCc2ccc(-c3ccc(Cl)cc3)cc2)C1O (stereo not drawn) [Compound 94]
2: zone score, E. faecalis CL 4877 (E. faecalis (CL 4877); [2]) | zone score, S. aureus ATCC 29213 (S. aureus (ATCC 29213); [2]) | zone score, S. epidermidis ATCC 12228 [1, 2]

CCC(O)C(=O)NC1C(=O)NC(CC(N)=O)C(=O)NC2C(=O)NC3C(=O)NC(C(=O)NC(C(=O)O)c4cc(O)cc(O)c4-c4cc3ccc4O)C(O)c3ccc(c(Cl)c3)Oc3cc2cc(c3OC2OC(CO)C(O)C(O)C2OC2CC(C)(NCc3ccc(-c4ccc(Cl)cc4)cc3)C(O)C(C)O2)Oc2ccc(cc2Cl)C1O (mixture of isomers) [Compound 286]
2: zone score, E. faecalis CL 4877 (E. faecalis (CL 4877); [3]) | zone score, S. aureus ATCC 29213 (S. aureus (ATCC 29213); [3]) | zone score, S. epidermidis ATCC 12228 [1, 3]

CC1OC(OC2C(Oc3c4cc5cc3Oc3ccc(cc3Cl)C(O)C3NC(=O)C(NC(=O)C5NC(=O)C(CC(N)=O)NC(=O)C(NC(=O)c5ccc(N)cc5O)C(O)c5ccc(c(Cl)c5)O4)c4ccc(O)c(c4)-c4c(O)cc(O)cc4C(C(=O)O)NC3=O)OC(CO)C(O)C2O)CC(C)(NCc2ccc(-c3ccc(Cl)cc3)cc2)C1O (stereo not drawn) [Compound 274]
2: zone score, E. faecalis CL 4877 (E. faecalis (CL 4877); [3]) | zone score, S. aureus ATCC 29213 (S. aureus (ATCC 29213); [3]) | zone score, S. epidermidis ATCC 12228 [1, 3]

CC(=O)OC(CC(=O)NC1C(=O)NC(CC(N)=O)C(=O)NC2C(=O)NC3C(=O)NC(C(=O)NC(C(=O)O)c4cc(O)cc(O)c4-c4cc3ccc4O)C(O)c3ccc(c(Cl)c3)Oc3cc2cc(c3OC2OC(CO)C(O)C(O)C2OC2CC(C)(NCc3ccc(-c4ccc(Cl)cc4)cc3)C(O)C(C)O2)Oc2ccc(cc2Cl)C1O)C[N+](C)(C)C (stereo not drawn) [Compound 119]
2: zone score, E. faecalis CL 4877 (E. faecalis (CL 4877); [2]) | zone score, S. aureus ATCC 29213 (S. aureus (ATCC 29213); [2]) | zone score, S. epidermidis ATCC 12228 [1, 2]
